In brackets after ≈: the same amount, converted by molar mass.

The record followed here is patent publication US10251869B2, “Compositions and methods of inhibiting metallo-β-lactamases” (priority 2014, dated 2019).

The target in data set [1] is T1, VIM-2 (Pseudomonas aeruginosa, UniProt Q9K2N0).
T1 construct: made in house; host or cells: E. coli BL21(DE3) pLys, plasmid pET-24a(+)-blaVIM-2-S21
The experiment in a line: BTZ inhibition kinetics of nitrocefin hydrolysis by VIM-2. Format: biochemical, P. aeruginosa. An excerpt:
(§1) Analysis of BTZ inhibition kinetics. Models involving one, or two-step slow binding were considered to analyze BTZ inhibition of NFC hydrolysis by VIM-2 and VIM-24 (Scheme 1).
(§2) Here E represents the free enzyme, and I the free inhibitor, EI is the final enzyme-inhibitor complex for a single step slow binding mechanism, and E*I is the enzyme-inhibitor complex formed after conformational changes in a two-step slow binding mechanism. Therefore, the dissociation constant for the EI complex (Ki), also called the inhibitor constant, is defined as Ki=k−1/k1; the dissociation constant for the E*I complex (Ki′) is defined as Ki′=k−2/k2, and the overall dissociation constant for the two-step mechanism (Ki*) is defined as Ki*=Ki/(1+([…])).
(§3) The Ki for each inhibitor was determined by direct competition assays under steady-state conditions. The initial velocity was measured in the presence of a constant concentration of enzyme (3 nM for VIM-2 and 4 nM for VIM-24) with increasing concentrations of inhibitor (5-60 μM) against a fixed concentration (5 x KM) of the indicator substrate, NCF, as previously described (42-44). The reactions were started by addition of VIM-2 or VIM-24 to substrate or to mixtures of substrate and inhibitor. Data were linearized by plotting inverse initial steady-state velocities (1/v0) against inhibitor concentration (I). Ki (observed) was determined by dividing the value for the y intercept by the slope of the line. Ki determinations were corrected to account for the affinity of NCF for the β-lactamase according to equation 3.
(§4) Measurements of association rate constants for inhibitor binding were carried out at 25° C. in 10 mM HEPES at pH 7.5 supplemented with 200 mM NaCl, 50 μM […] and 50 μg/ml BSA, in the presence of several concentrations of each compound. Reactions were then initiated by the addition of β-lactamase (3 nM VIM-2 or 4 nM VIM-24) to a mixture of 50 μM NCF and each BTZ without pre-incubation. Inhibitor association rate constants were estimated from linear extrapolation of the observed rate constant for inhibition (kobs), which was obtained by fitting progress curves of NFC hydrolysis to Eq. 4:
(§5) As previously described, the linear dependence of kobs vs. [I] at limiting I concentration approximates second-order rate constant k2/Ki. The observed second-order rate constant also includes an adjustment for competition between inhibitor and substrate binding (Eq. 5).
(§6) Also, vs calculated from the progress curves of NCF hydrolysis for each concentration of inhibitor were used to determine Ki*, according to the relationship shown in equation 6 (5). The value reported is the mean of three velocities±SD.
(§7) To further test the time-dependent inhibition mechanism of inhibitor binding, assays using dilutions of pre-formed complexes were performed. For these experiments, 1 μM of enzyme was incubated with varying concentrations of the inhibitor which allowed for complete inactivation of the enzyme during the 5 min incubation at 25° C. The reactions were then diluted 2,000-fold in 10 mM HEPES at pH 7.5 supplemented with 200 mM NaCl, 50 μM […] and 50 μg/ml BSA, which contained 50 μM NCF. Reactivation of the enzyme based on NCF hydrolysis was monitored over time. Control reaction with the free enzyme was performed in the same fashion.

Data set [2] has as its target T2, VIM-24 (Escherichia coli, UniProt Q5U7L7, R205L).
T2 construct: which corresponds to cleavage after residues 20 (plus an additional Met residue on the N-terminus); made in house; host or cells: E. coli BL21(DE3) pLys, plasmid pET-24a(+)-blaVIM-24-S21
The experiment in a line: BTZ inhibition kinetics of nitrocefin hydrolysis by VIM-24. Type of data set: biochemical.
From the text: as §1, §2, §3, §4, §5, §6, §7

The subject of data set [3] is CC(=O)OCC1=C(C(=O)O)N2C(=O)[C@@H](NC(=O)Cc3cccs3)[C@H]2SC1. The experiment in a line: Steady-state kinetic parameters of substrate hydrolysis by VIM-2. Type of data set: biochemical, P. aeruginosa. The settings on record: other: VIM-2, pH 7.5, 25° C., average ± SD, triplicate. An excerpt:
(§8) Steady-state reactions were followed using an Agilent (Santa Clara, Calif.) 8453 Diode Array spectrophotometer as previously described. […] For ceftazidime and cefepime, a 0.2-cm path length quartz cuvette was used. A nonlinear leastsquares fit of the data (Henri Michaelis-Menten equation) using Enzfitter (Biosoft Corporation, Ferguson, Mo.) was employed to obtain the steady-state kinetic parameters Vmax and KM according to equation 1.
(§9) In this equation the observed first-order rate constant k=kcat/KM*[E].

Data set [4] concerns C[C@@H](O)[C@H]1C(=O)N2C(C(=O)O)=C(SCCN=CN)C[C@H]12. The data set is described as above. Format: biochemical, P. aeruginosa. The note with it: other: VIM-2, pH 7.5, 25° C., average ± SD, triplicate.
From the text: as §8, §9

The subject of data set [5] is O=C(Cc1cccs1)N[C@@H]1C(=O)N2C(C(=O)O)=C(/C=C/c3ccc([N+](=O)[O-])cc3[N+](=O)[O-])CS[C@H]12. The description is as above. The settings on record: other: VIM-2, pH 7.5, 25° C., average ± SD, triplicate. Format: biochemical, P. aeruginosa.
From the text: as §8, §9

Data set [6] has as its system E. coli pBC SK(−). The experiment in a line: MIC by agar dilution, E. coli DH10B host with empty phagemid. Type of data set: cell-based. The settings on record: Escherichia coli, MHA. As to the method: (§10) E. coli DH10B (Invitrogen, Carlsbad, Calif.) was used as a host strain for pBCSK (−) blaVIM-2, and to obtain a mutant library at position 228 by site-saturation mutagenesis, using the QuickChange XL Site-directed Mutagenesis Kit (Stratagene). Briefly, primers that capture all 19 variants at MBL position 228 were designed and PCR mutagenic reactions were conducted using pBCSK (−) blaVIM-2 as a template, and transformed into E. coli DH10B. Single colonies were selected for plasmid purification, and successful mutagenesis was verified by complete DNA sequencing.
(§11) The effect of Zn^2+ availability was also tested by agar dilution using MH supplemented with 250 μM ZnSO4 or 5 μM EDTA. Reported values are the mode of at least 3 biological replicates.
For orientation: Agar dilution tests growth on a series of plates holding different concentrations.

In data set [7] the test system is E. coli DH10B pBCSK(−) producing VIM-2 (228R). The experiment in a line: MIC by agar dilution, E. coli DH10B producing VIM-2. Type of data set: cell-based. The settings on record: Escherichia coli, MHA, read-out: MIC.
From the text: A forward primer containing the SacI restriction site and a reverse primer with the BamHI restriction site were used to amplify blaVIM-2 including the pET24a(+) ribosomal binding site, using plasmid pET-24a(+)-blaVIM-2 as template. The product was then subcloned into phagemid pBCSK (−) (Agilent (Santa Clara, Calif.)) using the above restriction sites, and thus placing the blaVIM-2 open reading frame under control of the lac promoter, to yield phagemid pBCSK (−) blaVIM-2.
as §10, §11

Data set [8] relates to E. coli DH10B pBCSK(−) producing VIM-24 (R228L). Description: MIC by agar dilution, E. coli DH10B producing VIM-24. Format: cell-based. The settings on record: Escherichia coli, MHA, read-out: MIC. As to the method:
as §10, §11

Data set [9] concerns E. coli DH10B pBCSK(−) producing R228K variant. Description: MIC by agar dilution, E. coli DH10B producing VIM-2 R228K. Format: cell-based. The note with it: Escherichia coli, MHA. As to the method: as §10, §11
Data set [10] deals with E. coli DH10B pBCSK(−) producing R228P variant. The experiment in a line: MIC by agar dilution, E. coli DH10B producing VIM-2 R228P. Type of data set: cell-based. The settings on record: Escherichia coli, MHA. As to the method:
as §10, §11

For data set [11], the system named is E. coli DH10B pBCSK(−) producing R228M variant. The experiment in a line: MIC by agar dilution, E. coli DH10B producing VIM-2 R228M. Format: cell-based. The settings on record: Escherichia coli, MHA. As to the method:
as §10, §11

Data set [12] has as its system E. coli DH10B pBCSK(−) producing R228Q variant. Description: MIC by agar dilution, E. coli DH10B producing VIM-2 R228Q. Type of data set: cell-based. The settings on record: Escherichia coli, MHA. As to the method:
as §10, §11

The subject of data set [13] is E. coli DH10B pBCSK(−) producing R228Y variant. The experiment in a line: MIC by agar dilution, E. coli DH10B producing VIM-2 R228Y. Type of data set: cell-based. The settings on record: Escherichia coli, MHA. As to the method:
as §10, §11

In data set [14] the target is T2, VIM-24. The experiment in a line: Steady-state kinetic parameters of substrate hydrolysis by VIM-24. Type of data set: biochemical. The settings on record: pH 7.5, 25° C., average ± SD, triplicate.
From the text: as §8, §9

The mark [15] stands for this setting: rate constant for breakdown of E*I.
Setting [16] is: rate constant for formation of E*I.

By Ki is commonly meant the equilibrium dissociation constant of an inhibitor or competing ligand from its target. For the compound `CC1(C)SC2CSC(CS)N2C1C(=O)O` [D-VC26], the inhibition constant (Ki) in [1] (initial complex EI, NCF as reporter substrate) was determined as 14 ± 1 µM; in [1] (overall dissociation constant of two-step mechanism (E*I)), 0.1 ± 0.03 µM. The “k−2” value in [1] (setting [15]) is listed as 0.0006 ± 4 × 10^−4 s^−1; in data set [2] (setting [15]) it was 0.00007 ± 1 × 10^−5 s^−1. Moreover, the k2 in data set [1] (setting [16]) is given as 0.09 ± 4 × 10^−3 s^−1; in data set [2] (setting [16]) it was 0.01 ± 3 × 10^−3 s−1.

A word on the Km: it is the concentration of substrate that gives half-maximal velocity. A word on the kcat: it is the number of substrate molecules converted per active site and unit of time at saturation. A word on the kcat/Km: it is the turnover number divided by the Michaelis constant. With VIM-2 (Pseudomonas aeruginosa), in data set [3], the Michaelis constant (Km) stood at 17 ± 2 µM, the catalytic constant (kcat) was 168 ± 8 s⁻¹ and the kcat/Km came out at 9.8e+06 M⁻¹ s⁻¹. Moreover, in [4], the Michaelis-Menten constant (Km) was 12 ± 1 µM, the catalytic constant (kcat) was determined as 45 ± 1 s⁻¹ and the kcat/Km was 3.6e+06 M⁻¹ s⁻¹. For the same compound, in data set [5], the Km was determined as 13 ± 1 µM, the turnover number (kcat) stood at 430 ± 20 s⁻¹ and the kcat/Km amounted to 3.3e+07 M⁻¹ s⁻¹.

`CO/N=C(\C(=O)N[C@@H]1C(=O)N2C(C(=O)O)=C(COC(C)=O)CS[C@H]12)c1csc(N)n1` [Cefotaxime]: the MIC in [6] stood at 0.06 µg/mL (≈ 0.132 µM); in [7], 8 µg/mL (≈ 17.6 µM); in [8], 16 µg/mL (≈ 35.1 µM); in data set [9], 1 µg/mL (≈ 2.2 µM); in [10] it was 1 µg/mL (≈ 2.2 µM); in data set [11] it was 16 µg/mL (≈ 35.1 µM). Also, the MIC in data set [12] amounted to 32 µg/mL (≈ 70.3 µM); in data set [13], 16 µg/mL (≈ 35.1 µM).

Take `CC(=O)OCC1=C(C(=O)O)N2C(=O)[C@@H](NC(=O)Cc3cccs3)[C@H]2SC1` [Cephalothin]: the MIC in data set [6] amounted to 8 µg/mL (≈ 20.2 µM); in [9], 16 µg/mL (≈ 40.4 µM); in data set [10], 16 µg/mL (≈ 40.4 µM); in data set [12] it was 1020 µg/mL (≈ 2580 µM). Also, in data set [14], the Kcat is 150 ± 9 s⁻¹. In addition, in [14], the Michaelis-Menten constant (Km) amounted to 33 ± 5 µM.

In the case of `CO/N=C(\C(=O)N[C@@H]1C(=O)N2C(C(=O)O)=C(CSc3nc(=O)c(=O)[nH]n3C)CS[C@H]12)c1csc(N)n1` [Ceftriaxone], the MIC in data set [6] stood at 0.5 µg/mL (≈ 0.902 µM); in data set [7], 8 µg/mL (≈ 14.4 µM); in data set [8] it was 8 µg/mL (≈ 14.4 µM); in data set [9] it was 1 µg/mL (≈ 1.8 µM); in data set [10], 0.5 µg/mL (≈ 0.902 µM); in data set [11], 16 µg/mL (≈ 28.9 µM). The values for the MIC in [12] and in [13] were 32 µg/mL (≈ 57.7 µM) and 16 µg/mL (≈ 28.9 µM), respectively.
